In ChEMBL document CHEMBL1135631, “Design and evaluation of affinity labels of functionalized amino acid anticonvulsants” (J Med Chem, 2002):

Experiments:
[1] = Protective index as the ratio of TD50 value to that of ED50 value in mice.; type: functional
[2] = Protective index as the ratio of TD50 value to that of ED50 value in rat.; type: functional
[3] = Neurologic toxicity using rotarod test in rat after oral administration; type: organism-based; details: in vivo
Mus musculus = experiment: (§1) Anticonvulsant activity using MES test in mice after intraperitoneal administration; type: functional; details: ip
[4] = Neurologic toxicity using rotarod test in mice after intraperitoneal administration; type: organism-based; details: mouse, in vivo, ip
Rattus norvegicus = experiment: Anticonvulsant activity using MES test in rat after oral administration; type: functional
[5] = biological target: Metabotropic glutamate receptor 1 (Rattus norvegicus) (UniProt P23385); experiment: as §1; type: functional, organism-based; details: Mus musculus; target entry is the homologue from another species
Metabotropic glutamate receptor 1 (Rattus norvegicus), sequence (P23385 19-1199 limits assumed): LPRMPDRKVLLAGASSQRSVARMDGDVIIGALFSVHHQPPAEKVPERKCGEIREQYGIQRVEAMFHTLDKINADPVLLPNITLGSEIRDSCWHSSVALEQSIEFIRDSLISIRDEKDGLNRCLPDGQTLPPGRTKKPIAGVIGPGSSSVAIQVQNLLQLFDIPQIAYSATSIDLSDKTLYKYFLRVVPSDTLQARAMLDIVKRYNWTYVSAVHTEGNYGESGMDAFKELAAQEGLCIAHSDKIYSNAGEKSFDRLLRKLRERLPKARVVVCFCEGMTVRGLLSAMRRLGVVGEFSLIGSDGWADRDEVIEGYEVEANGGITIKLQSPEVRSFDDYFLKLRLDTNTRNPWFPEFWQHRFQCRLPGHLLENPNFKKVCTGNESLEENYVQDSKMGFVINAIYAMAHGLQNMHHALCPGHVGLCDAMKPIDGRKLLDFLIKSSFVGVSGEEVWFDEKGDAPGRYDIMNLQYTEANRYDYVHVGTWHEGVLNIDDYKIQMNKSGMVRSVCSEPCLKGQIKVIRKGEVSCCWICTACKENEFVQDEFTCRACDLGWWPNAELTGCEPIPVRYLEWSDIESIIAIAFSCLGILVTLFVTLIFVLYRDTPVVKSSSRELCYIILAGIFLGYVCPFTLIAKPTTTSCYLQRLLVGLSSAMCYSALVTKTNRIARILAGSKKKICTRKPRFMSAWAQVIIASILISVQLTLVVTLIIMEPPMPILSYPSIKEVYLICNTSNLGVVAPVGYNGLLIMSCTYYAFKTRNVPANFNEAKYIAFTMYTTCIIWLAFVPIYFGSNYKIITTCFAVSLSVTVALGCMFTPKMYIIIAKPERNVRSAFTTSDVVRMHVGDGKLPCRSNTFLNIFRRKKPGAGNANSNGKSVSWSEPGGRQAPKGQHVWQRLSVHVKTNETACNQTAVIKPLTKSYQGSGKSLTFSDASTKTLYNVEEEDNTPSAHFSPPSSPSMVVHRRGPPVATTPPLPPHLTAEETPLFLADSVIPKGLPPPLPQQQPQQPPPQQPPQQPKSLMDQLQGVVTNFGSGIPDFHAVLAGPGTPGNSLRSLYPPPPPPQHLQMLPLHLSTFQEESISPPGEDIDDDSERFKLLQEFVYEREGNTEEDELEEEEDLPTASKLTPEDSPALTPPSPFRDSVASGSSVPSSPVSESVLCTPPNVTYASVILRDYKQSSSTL

## COCC(NC(C)=O)C(=O)NCc1ccccc1 (racemic)
[1]
  PI: 5.2
[2]
  PI: 101
[3]
  TD50: 37 mg/kg

## CCOCC(NC(C)=O)C(=O)NCc1ccccc1 (racemic)
Mus musculus
  ED50: 17 mg/kg

## COC[C@H](NC(=O)CBr)C(=O)NCc1ccccc1
[4]
  TD50: > 30 mg/kg
Mus musculus
  ED50: > 30 mg/kg

## CCCC(NC(C)=O)C(=O)NCc1ccccc1 (racemic)
[1]
  PI: 4.2
[2]
  PI: >30
Rattus norvegicus
  ED50: 30 mg/kg
[4]
  TD50: 160 mg/kg
Mus musculus
  ED50: 38 mg/kg
[3]
  TD50: > 30 mg/kg

## COC[C@H](NC(C)=O)C(=O)NCc1ccccc1
Rattus norvegicus
  ED50: > 30 mg/kg
[4]
  TD50: > 300 mg/kg
[3]
  TD50: > 30 mg/kg

## COC[C@H](NC(C)=O)C(=O)NCc1cccc(N=C=S)c1
Rattus norvegicus
  ED50: > 150 mg/kg
[4]
  TD50: > 100 mg/kg
Mus musculus
  ED50: > 100 mg/kg
[3]
  TD50: > 150 mg/kg

## CCC1(c2ccccc2)C(=O)NC(=O)NC1=O [PHENOBARBITAL]
Rattus norvegicus
  ED50: 9.1 mg/kg
Mus musculus
  ED50: 22 mg/kg

## O=C1NC(=O)C(c2ccccc2)(c2ccccc2)N1 [PHENYTOIN]
Rattus norvegicus
  ED50: 30 mg/kg

## COC[C@@H](NC(C)=O)C(=O)NCc1ccc(N=C=S)cc1
[1]
  PI: 2
[2]
  PI: >59
Rattus norvegicus
  ED50: 4.2 mg/kg
[4]
  TD50: 47 mg/kg
Mus musculus
  ED50: 24 mg/kg
[3]
  TD50: > 250 mg/kg

## COC[C@@H](NC(C)=O)C(=O)NCc1ccccc1 [LACOSAMIDE]
[1]
  PI: 6
[2]
  PI: >128
[3]
  TD50: > 500 mg/kg

## COC[C@H](NC(C)=O)C(=O)NCc1ccc(N=C=S)cc1
Rattus norvegicus
  ED50: > 180 mg/kg
[4]
  TD50: > 30 mg/kg
Mus musculus
  ED50: > 100 mg/kg
[3]
  TD50: > 30 mg/kg

## C=CC(=O)NC(COC)C(=O)NCc1ccccc1 (racemic)
Rattus norvegicus
  ED50: > 30 mg/kg
[4]
  TD50: > 300 mg/kg
Mus musculus
  ED50: > 100 mg/kg
[3]
  TD50: > 30 mg/kg

## COC[C@@H](NC(C)=O)C(=O)NCc1cccc(N=C=S)c1
[1]
  PI: 1.6
[2]
  PI: >9
Rattus norvegicus
  ED50: 28 mg/kg
[4]
  TD50: 120 mg/kg
[3]
  TD50: > 250 mg/kg
[5]
  ED50: 74 mg/kg

## CCCC(CCC)C(=O)O [VALPROIC ACID]
Mus musculus
  ED50: 270 mg/kg

## CC(=O)NC(CCCCN=C=S)C(=O)NCc1ccccc1 (racemic)
Rattus norvegicus
  ED50: > 30 mg/kg
[4]
  TD50: > 30 mg/kg
Mus musculus
  ED50: > 30 mg/kg
[3]
  TD50: > 30 mg/kg

## COC[C@@H](NC(=O)CBr)C(=O)NCc1ccccc1
[4]
  TD50: > 30 mg/kg
Mus musculus
  ED50: > 300 mg/kg
